The values below come from ChEMBL document CHEMBL3046469, “Fungicidal Activities of 2-(Substituted Phenoxymethyl)phenyl-2-methoxyiminoacaetamide Derivatives” (1998).

Bounds are passed on as bounds.

Holding throughout (assay type): functional
For assay [1], the system named is Pyricularia oryzae. The assay is described as follows: Fungicidal activity against Magnaporthe oryzae assessed as rice blast disease control at 31.3 ppm foliar application for 24 hr before inoculation at 27 +/- 2 degC measured after 5 days by preventive manner.
The test system of assay [2] is Podosphaera fuliginea. Kind of assay: Fungicidal activity against Podosphaera fuliginea assessed as cucumber powdery mildew control at 7.8 ppm foliar application 24 hr before inoculation at 23 +/- 2 degC by preventive manner.
Assay [3] deals with Botrytis cinerea. The assay is described as follows: Fungicidal activity against Botryotinia fuckeliana assessed as cucumber gray mold disease control at 7.8 ppm foliar application […] at 22 +/- 2 degC by preventive manner.
Assay [4] deals with Blumeria graminis f. sp. tritici. The assay is described as follows: Fungicidal activity against Blumeria graminis f. sp. tritici assessed as wheat powdery mildew disease control at 2 ppm foliar application for 48 hr before inoculation by preventive manner.
In assay [5] the test system is Thanatephorus cucumeris. The assay is described as follows: Fungicidal activity against Thanatephorus cucumeris assessed as rice sheath blight disease control at 31.3 ppm foliar application for 24 hr before inoculation at 26 +/- 2 degC measured after 5 days by preventive manner.
In assay [6] the test system is Pseudoperonospora cubensis. Kind of assay: Fungicidal activity against Pseudoperonospora cubensis assessed as cucumber downy mildew disease control at 125 ppm foliar application 24 hr before inoculation onto the abaxial(untreated) surface of leaf by preventive manner.
Assay [7] concerns Pseudoperonospora cubensis. The assay is described as follows: Fungicidal activity against Pseudoperonospora cubensis assessed as cucumber downy mildew disease control at 2 ppm foliar application 24 hr before inoculation onto the adaxial(treated) surface of leaf by preventive manner.
For assay [8], the system named is Thanatephorus cucumeris. The assay is described as follows: Fungicidal activity against Thanatephorus cucumeris assessed as rice sheath blight disease control at 125 ppm foliar application for 24 hr before inoculation at 26 +/- 2 degC measured after 5 days by preventive manner.
For assay [9], the system named is Pseudoperonospora cubensis. Kind of assay: Fungicidal activity against Pseudoperonospora cubensis assessed as cucumber downy mildew disease control at 31.3 ppm foliar application 24 hr before inoculation onto the abaxial(untreated) surface of leaf by preventive manner.
In assay [10] the test system is Pseudoperonospora cubensis. Kind of assay: Fungicidal activity against Pseudoperonospora cubensis assessed as cucumber downy mildew disease control at 7.8 ppm foliar application 24 hr before inoculation onto the adaxial(treated) surface of leaf by preventive manner.
In assay [11] the test system is Blumeria graminis f. sp. tritici. Kind of assay: Fungicidal activity against Blumeria graminis f. sp. tritici assessed as wheat powdery mildew disease control at 7.8 ppm foliar application 48 24 hr before inoculation by preventive manner.
Assay [12] deals with Botrytis cinerea. The assay is described as follows: Fungicidal activity against Botryotinia fuckeliana assessed as cucumber gray mold disease control at 31.3 ppm foliar application […] at 22 +/- 2 degC by preventive manner.
Assay [13] relates to Pyricularia oryzae. The assay is described as follows: Fungicidal activity against Magnaporthe oryzae assessed as rice blast disease control at 125 ppm foliar application for 24 hr before inoculation at 27 +/- 2 degC measured after 5 days by preventive manner.
In assay [14] the test system is Blumeria graminis f. sp. tritici. Kind of assay: Fungicidal activity against Blumeria graminis f. sp. tritici assessed as wheat powdery mildew disease control at 125 ppm foliar application for 48 hr before inoculation by preventive manner.
For assay [15], the system named is Podosphaera fuliginea. Kind of assay: Fungicidal activity against Podosphaera fuliginea assessed as cucumber powdery mildew control at 2 ppm foliar application 24 hr before inoculation at 23 +/- 2 degC by preventive manner.
Assay [16] concerns Pseudoperonospora cubensis. The assay is described as follows: Fungicidal activity against Pseudoperonospora cubensis assessed as cucumber downy mildew disease control at 7.8 ppm foliar application 24 hr before inoculation onto the abaxial(untreated) surface of leaf by preventive manner.
For assay [17], the system named is Podosphaera fuliginea. The assay is described as follows: Fungicidal activity against Podosphaera fuliginea assessed as cucumber powdery mildew control at 125 ppm foliar application 24 hr before inoculation at 23 +/- 2 degC by preventive manner.
In assay [18] the test system is Botrytis cinerea. Kind of assay: Fungicidal activity against Botryotinia fuckeliana assessed as cucumber gray mold disease control at 125 ppm foliar application […] at 22 +/- 2 degC by preventive manner.

`CNC(=O)/C(=N/OC)c1ccccc1COc1cc(C)cc(C)c1`: the Activity in the assay on Pyricularia oryzae [1] is reported as 90%; with Podosphaera fuliginea [2] it was 90%; in the assay with Botrytis cinerea [3] it was 90%; in assay [4], 90%; in the assay on Thanatephorus cucumeris [5], 90%; in [6], less than 90%. For the same compound, the Activity in assay [7] is listed as 90%.
In the case of `CNC(=O)/C(=N/OC)c1ccccc1COc1ccc(Br)cc1`, the Activity in the assay with Pyricularia oryzae [1] is 90%; with Podosphaera fuliginea [2], 90%; in the assay with Botrytis cinerea [3] it was 90%; in assay [4] it was 90%; with Thanatephorus cucumeris [8], less than 90%; in assay [9] it was 90%. For the same compound, the Activity in assay [10] worked out at 90%.
Take `CNC(=O)/C(=N/OC)c1ccccc1COc1c(F)cccc1F`: the Activity (in the assay with Pyricularia oryzae [1]; in the assay with Podosphaera fuliginea [2]; in assay [11]; in the assay with Thanatephorus cucumeris [8]; in [9]; in assay [10]) was 90% each time. In addition, the Activity with Botrytis cinerea [12] was 90%.
Turning to `CNC(=O)/C(=N/OC)c1ccccc1COc1cc(Cl)cc(Cl)c1`, the Activity with Pyricularia oryzae [13] is reported as 90%; with Podosphaera fuliginea [2], 90%; in the assay on Botrytis cinerea [3], 90%; in assay [11], 90%; in the assay on Thanatephorus cucumeris [8], less than 90%; in [9] it was 90%. Moreover, the Activity in assay [7] is recorded as 90%.
For the compound `CNC(=O)/C(=N/OC)c1ccccc1COc1cc(C)c(C)cc1Cl`, the Activity in the assay on Pyricularia oryzae [13] is given as 90%; with Podosphaera fuliginea [2], 90%; with Botrytis cinerea [3], 90%; in assay [14] it was 90%; in the assay with Thanatephorus cucumeris [8], less than 90%; in assay [6] it was less than 90%. Also, the Activity in assay [7] turned out to be 90%.
With `CNC(=O)/C(=N/OC)c1ccccc1COc1ccc(Cl)c(Cl)c1`, the Activity in the assay with Pyricularia oryzae [1] is 90%; in the assay on Podosphaera fuliginea [15] it was 90%; with Botrytis cinerea [3], 90%; in assay [11] it was 90%; in the assay on Thanatephorus cucumeris [8], less than 90%; in [9], 90%. Besides, the Activity in [10] came out at 90%.
Take `CNC(=O)/C(=N/OC)c1ccccc1COc1cccc(Br)c1`: the Activity with Pyricularia oryzae [13] was 90%; with Podosphaera fuliginea [2], 90%; in the assay on Botrytis cinerea [3] it was 90%; in the assay on Thanatephorus cucumeris [8], less than 90%; in [16], 90%; in [7] it was 90%.
As to `CNC(=O)/C(=N/OC)c1ccccc1COc1ccc(F)cc1`, the Activity (in the assay with Pyricularia oryzae [13]; in the assay with Podosphaera fuliginea [2]; with Botrytis cinerea [3]; in assay [4]; with Thanatephorus cucumeris [8]; in assay [9]) was 90% in each case. For the same compound, in assay [10], the Activity is 90%.
Turning to `CNC(=O)/C(=N/OC)c1ccccc1COc1cc(C)c(Cl)c(C)c1`, the Activity is reported as 90% with Pyricularia oryzae [1]; 90% in the assay on Podosphaera fuliginea [2]; 90% in the assay on Botrytis cinerea [3]; 90% in [11]; less than 90% with Thanatephorus cucumeris [8]; 90% in assay [6]. The Activity in assay [7] is 90%.
`CNC(=O)/C(=N/OC)c1ccccc1COc1ccc(C(F)(F)F)cc1`: the Activity is 90% in the assay with Pyricularia oryzae [1]; 90% in the assay with Podosphaera fuliginea [2]; 90% in the assay with Botrytis cinerea [3]; 90% in [11]; less than 90% with Thanatephorus cucumeris [8]; 90% in [16]. The Activity in assay [10] worked out at 90%.
On to `CNC(=O)/C(=N/OC)c1ccccc1COc1cccc(F)c1F`, for which the Activity in the assay with Pyricularia oryzae [13] was less than 90%; in the assay on Podosphaera fuliginea [2], 90%; in the assay with Botrytis cinerea [3] it was 90%; in [4], 90%; in the assay on Thanatephorus cucumeris [8], less than 90%; in assay [6], less than 90%. The Activity in assay [10] came to 90%.
As for `CNC(=O)/C(=N/OC)c1ccccc1COc1cc(F)ccc1F`, the Activity (in the assay on Pyricularia oryzae [1]; in the assay with Podosphaera fuliginea [2]; in the assay on Botrytis cinerea [3]; in [4]; in the assay with Thanatephorus cucumeris [5]; in assay [16]) was 90% throughout. In [7], the Activity turned out to be 90%.
As for `CNC(=O)/C(=N/OC)c1ccccc1COc1cc(F)cc(F)c1`, the Activity (in the assay with Pyricularia oryzae [1]; with Podosphaera fuliginea [2]; in the assay on Botrytis cinerea [3]; in assay [4]; with Thanatephorus cucumeris [8]; in assay [9]) was 90% throughout. Moreover, the Activity in assay [10] was 90%.
With `CNC(=O)/C(=N/OC)c1ccccc1COc1c(C)cc(C)cc1C`, the Activity is listed as 90% with Pyricularia oryzae [13]; 90% in the assay on Podosphaera fuliginea [17]; 90% in assay [14]; less than 90% with Thanatephorus cucumeris [8]; less than 90% in assay [6]; 90% in assay [10]. Moreover, the Activity in the assay with Botrytis cinerea [12] was determined as 90%.
In the case of `C#CCOc1ccc(OCc2ccccc2/C(=N\OC)C(=O)NC)cc1`, the Activity in the assay on Pyricularia oryzae [1] is listed as 90%; in the assay on Podosphaera fuliginea [2], 90%; in the assay with Botrytis cinerea [3], 90%; in assay [14], 90%; in the assay with Thanatephorus cucumeris [8] it was less than 90%; in assay [9] it was 90%. Also, the Activity in [10] came out at 90%.
As for `CNC(=O)/C(=N/OC)c1ccccc1COc1ccccc1Cl`, the Activity (in the assay on Pyricularia oryzae [1]; in the assay on Podosphaera fuliginea [2]; in the assay on Botrytis cinerea [3]; in [4]; in the assay on Thanatephorus cucumeris [8]; in assay [6]) was 90% each time. Also, in assay [10], the Activity turned out to be 90%.
For the compound `CNC(=O)/C(=N/OC)c1ccccc1COc1cccc([N+](=O)[O-])c1`, the Activity in the assay with Pyricularia oryzae [13] is 90%; with Podosphaera fuliginea [17], less than 90%; in assay [14], 90%; in the assay on Thanatephorus cucumeris [8] it was less than 90%; in [6], less than 90%; in [10] it was 90%.
Regarding `CNC(=O)/C(=N/OC)c1ccccc1COc1ccc(C)cc1`, the Activity is recorded as 90% in the assay on Pyricularia oryzae [1]; 90% in the assay on Podosphaera fuliginea [15]; 90% in the assay with Botrytis cinerea [3]; 90% in [4]; less than 90% in the assay with Thanatephorus cucumeris [8]; less than 90% in [6]. Further, the Activity in [7] turned out to be 90%.
Regarding `C#CCOc1cccc(OCc2ccccc2/C(=N\OC)C(=O)NC)c1`, the Activity is 90% with Pyricularia oryzae [13]; 90% in the assay on Podosphaera fuliginea [17]; 90% in assay [14]; less than 90% with Thanatephorus cucumeris [8]; 90% in assay [6]; 90% in assay [7]. Further, the Activity with Botrytis cinerea [12] amounted to 90%.
On to `CNC(=O)/C(=N/OC)c1ccccc1COc1cccc(Cl)c1`, for which the Activity (in the assay with Pyricularia oryzae [1]; in the assay with Podosphaera fuliginea [2]; in the assay with Botrytis cinerea [3]; in assay [11]; with Thanatephorus cucumeris [5]; in assay [16]) was 90% throughout. In [7], the Activity is 90%.
`CNC(=O)/C(=N/OC)c1ccccc1COc1ccc(/C=C\c2ccccc2)cc1`: the Activity with Pyricularia oryzae [13] is less than 90%; in the assay with Podosphaera fuliginea [17] it was less than 90%; in assay [14], 90%; with Thanatephorus cucumeris [8], less than 90%; in [6], less than 90%; in the assay on Botrytis cinerea [18], less than 90%.
`CNC(=O)/C(=N/OC)c1ccccc1COc1ccccc1F`: the Activity (in the assay on Pyricularia oryzae [1]; in the assay on Podosphaera fuliginea [2]; in the assay on Botrytis cinerea [3]; with Thanatephorus cucumeris [8]; in assay [16]; in assay [10]) was 90% each time.
Take `CNC(=O)/C(=N/OC)c1ccccc1COc1ccc(C(=O)c2ccccc2)cc1`: the Activity with Pyricularia oryzae [13] is 90%; with Botrytis cinerea [3], 90%; in the assay on Podosphaera fuliginea [17], less than 90%; in assay [14], 90%; in the assay with Thanatephorus cucumeris [8] it was less than 90%; in [6], less than 90%.
